This experiment deals with DLD-1 BRCA2(−/−) Cell. Kind of experiment: Cell viability assay (Resazurin) in DLD1-BRCA2 cells. Type of experiment: cell-based. The following applies: Homo sapiens, DLD-1, 336 h, 14 days, 1,500 cells/well, final DMSO 1%. An outline of the steps: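 DLD1-BRCA2 KG cells seeded at 1,500/well (parental 600/well) in RPMI-1640 with 10% FBS, compound added after 4 h (1% DMSO), media replaced every 3-4 days over 14 days at 37° C. Viability read by resazurin (0.1 mg/ml, 4 h) fluorescence at Ex/Em 560/590 nm; IC50 fitted.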
(In general: Alamar Blue is a resazurin reagent that responds to reducing activity.)
For orientation: IC50 means the concentration that inhibits the measured activity by half. A low value points to inhibition by little substance. With `Cc1cc(C(F)(F)F)cc(N2[C@H](C(=O)N(CC#Cc3cnc(N4[C@H](C)CN(C(C)C)C[C@H]4C)cn3)c3ccc(F)c(C)c3)CCS2(=O)=O)n1` [Example 55, (S)-N-(4-fluoro-3-methylphenyl)-N-(3-(5-((2R,6R)-4-isopropyl-2,6-dimethylpiperazin-1-yl)pyrazin-2-yl)prop-2-yn-1-yl)-2-(6-methyl-4-(trifluoromethyl)pyridin-2-yl)isothiazolidine-3-carboxamide 1,1-dioxide], the IC50 was < 1000 nM.
For `Cc1cc(C(F)(F)F)cc(N2[C@H](C(=O)N(CC#Cc3ccc(N4CCOCC4)nc3)c3ccc(F)c(C)c3)CCS2(=O)=O)n1` [Example 85, (S)-N-(4-fluoro-3-methylphenyl)-2-(6-methyl-4-(trifluoromethyl)pyridin-2-yl)-N-(3-(6-morpholinopyridin-3-yl)prop-2-yn-1-yl)isothiazolidine-3-carboxamide 1,1-dioxide] the value was < 1000 nM; for `CCN1CCN(CC#CCN(C(=O)[C@@H]2CCC(=O)N2c2cc(C(F)(F)F)cc(C)n2)c2ccc(F)c(C)c2F)CC1` [Example 13, (S)—N-(2,4-difluoro-3-methylphenyl)-N-(4-(4-ethylpiperazin-1-yl)but-2-yn-1-yl)-1-(6-methyl-4-(trifluoromethyl)pyridin-2-yl)-5-oxopyrrolidine-2-carboxamide], 1100 to 5000 nM.
`Cc1cc(C(F)(F)F)cc(N2[C@H](C(=O)N(CC#Cc3cnc(C(N)=O)nc3)c3ccc(F)c(C)c3)CCS2(=O)=O)n1` [Example 78, (S)-N-(3-(2-carbamoylpyrimidin-5-yl)prop-2-yn-1-yl)-N-(4-fluoro-3-methylphenyl)-2-(6-methyl-4-(trifluoromethyl)pyridin-2-yl)isothiazolidine-3-carboxamide 1,1-dioxide]: the IC50 is < 1000 nM.
For `Cc1cc(C(F)(F)F)cc(N2[C@H](C(=O)N(CC#Cc3cncc(S(N)(=O)=O)n3)c3ccc(F)c(C)c3)CCS2(=O)=O)n1` [Example 66, (S)-N-(4-fluoro-3-methylphenyl)-2-(6-methyl-4-(trifluoromethyl)pyridin-2-yl)-N-(3-(6-sulfamoylpyrazin-2-yl)prop-2-yn-1-yl)isothiazolidine-3-carboxamide 1,1-dioxide], the IC50 was < 1000 nM.
Regarding `Cc1cc(C(F)(F)F)cc(N2[C@H](C(=O)N(CC#Cc3cnc(N4CCOCC4)nc3)c3ccc(F)c(C)c3)CCS2(=O)=O)n1` [Example 77, (S)-N-(4-fluoro-3-methylphenyl)-2-(6-methyl-4-(trifluoromethyl)pyridin-2-yl)-N-(3-(2-morpholinopyrimidin-5-yl)prop-2-yn-1-yl)isothiazolidine-3-carboxamide 1,1-dioxide], the IC50 was < 1000 nM.
For `Cc1cc(C(F)(F)F)cc(N2[C@H](C(=O)N(CC#Cc3cnc(C#N)cn3)c3ccc(F)c(C)c3)CCS2(=O)=O)n1` [Example 59, (S)-N-(3-(5-cyanopyrazin-2-yl)prop-2-yn-1-yl)-N-(4-fluoro-3-methylphenyl)-2-(6-methyl-4-(trifluoromethyl)pyridin-2-yl)isothiazolidine-3-carboxamide 1,1-dioxide] the value was < 1000 nM; for `Cc1cc(C(F)(F)F)cc(N2C(=O)CC[C@H]2C(=O)N(CC#CCN2CCOCC2)c2ccc(F)c(C)c2F)n1` [Example 14, (S)—N-(2,4-difluoro-3-methylphenyl)-1-(6-methyl-4-(trifluoromethyl)pyridin-2-yl)-N-(4-morpholinobut-2-yn-1-yl)-5-oxopyrrolidine-2-carboxamide], 1100 to 5000 nM.
On to `Cc1cc(C(F)(F)F)cc(N2C(=O)CC[C@H]2C(=O)N(CC#Cc2ccc(C(N)=O)nc2)c2ccc(F)c(C)c2)n1` [Example 12, (S)-5-(3-(N-(4-fluoro-3-methyl-phenyl)-1-(6-methyl-4-(trifluoro-methyl)pyridin-2-yl)-5-oxo-pyrrolidine-2-carboxamido)prop-1-yn-1-yl)picolinamide], for which the IC50 is < 1000 nM.
On to `Cc1cc(C(F)(F)F)cc(N2[C@H](C(=O)N(CC#Cc3ccc(NC(C)C)nn3)c3ccc(F)c(C)c3)CCS2(=O)=O)n1` [Example 20], for which the half-maximal inhibitory concentration (IC50) was < 1000 nM.
Consider `Cc1cc(C(F)(F)F)cc(N2[C@@H](C(=O)N(CC#Cc3cnc(N4C[C@H](C)N(C(C)C)[C@@H](C)C4)cn3)c3ccc(F)c(C)c3)CCS2(=O)=O)n1` [Example 54, (R)-N-(4-fluoro-3-methylphenyl)-N-(3-(5-((3S,5S)-4-isopropyl-3,5-dimethylpiperazin-1-yl)pyrazin-2-yl)prop-2-yn-1-yl)-2-(6-methyl-4-(trifluoromethyl)pyridin-2-yl)isothiazolidine-3-carboxamide 1,1-dioxide], for which the IC50 is > 5100 nM.
With `Cc1cc(C(F)(F)F)cc(N2[C@H](C(=O)N(CC#Cc3cnc(-c4ncon4)cn3)c3ccc(F)c(C)c3)CCS2(=O)=O)n1` [Example 58, (S)-N-(3-(5-(1,2,4-oxadiazol-3-yl)pyrazin-2-yl)prop-2-yn-1-yl)-N-(4-fluoro-3-methylphenyl)-2-(6-methyl-4-(trifluoromethyl)pyridin-2-yl)isothiazolidine-3-carboxamide 1,1-dioxide], the IC50 is < 1000 nM.
For `Cc1cccc(N(CC#Cc2ccc(N)nn2)C(=O)[C@@H]2CCC(=O)N2c2cc(C(F)(F)F)cc(C)n2)c1` [Example 1, (S)—N-(3-(6-aminopyridazin-3-yl)prop-2-yn-1-yl)-1-(6-methyl-4-(trifluoromethyl)pyridin-2-yl)-5-oxo-N-(m-tolyl)pyrrolidine-2-carboxamide] the value was < 1000 nM; for `Cc1cc(C(F)(F)F)cc(N2[C@H](C(=O)N(CC#Cc3ncc(C(=O)N4CCOCC4)cn3)c3ccc(F)c(C)c3)CCS2(=O)=O)n1` [Example 82, (S)-N-(4-fluoro-3-methylphenyl)-2-(6-methyl-4-(trifluoromethyl)pyridin-2-yl)-N-(3-(5-(morpholine-4-carbonyl)pyrimidin-2-yl)prop-2-yn-1-yl)isothiazolidine-3-carboxamide 1,1-dioxide], < 1000 nM.
Turning to `Cc1cc(C(F)(F)F)cc(N2[C@H](C(=O)N(CC#Cc3ccc(N)nn3)c3ccc(F)c(C)c3)CCS2(=O)=O)n1` [Example 18, (S)-N-(3-(6-aminopyridazin-3-yl)prop-2-yn-1-yl)-N-(4-fluoro-3-methylphenyl)-2-(6-methyl-4-(trifluoromethyl)pyridin-2-yl)isothiazolidine-3-carboxamide 1,1-dioxide], the IC50 is < 1000 nM.
For the compound `Cc1cc(C(F)(F)F)cc(N2[C@H](C(=O)N(CC#Cc3cccc(OC(F)F)n3)c3ccc(F)c(C)c3)CCS2(=O)=O)n1` [Example 89, (S)-N-(3-(6-(difluoromethoxy)pyridin-2-yl)prop-2-yn-1-yl)-N-(4-fluoro-3-methylphenyl)-2-(6-methyl-4-(trifluoromethyl)pyridin-2-yl)isothiazolidine-3-carboxamide 1,1-dioxide], the IC50 was in the range of 1100 to 5000 nM.
With `Cc1cc(C(F)(F)F)cc(N2[C@H](C(=O)N(CC#Cc3cnc(N4C[C@H](C)N[C@@H](C)C4)cn3)c3ccc(F)c(C)c3)CCS2(=O)=O)n1` [Example 52, (S)-N-(3-(5-((3S,5S)-3,5-dimethylpiperazin-1-yl)pyrazin-2-yl)prop-2-yn-1-yl)-N-(4-fluoro-3-methylphenyl)-2-(6-methyl-4-(trifluoromethyl)pyridin-2-yl)isothiazolidine-3-carboxamide 1,1-dioxide], the IC50 is < 1000 nM.
Take `CCN1CCN(c2ccc(C#CCN(C(=O)[C@@H]3CCS(=O)(=O)N3c3cc(C(F)(F)F)cc(C)n3)c3ccc(F)c(C)c3)nn2)CC1` [Example 24, (S)-N-(3-(6-(4-ethylpiperazin-1-yl)pyridazin-3-yl)prop-2-yn-1-yl)-N-(4-fluoro-3-methylphenyl)-2-(6-methyl-4-(trifluoromethyl)pyridin-2-yl)isothiazolidine-3-carboxamide 1,1-dioxide]: the IC50 is < 1000 nM.
For the compound `Cc1cc(C(F)(F)F)cc(N2[C@H](C(=O)N(CC#Cc3ncc(N4CCOCC4)nc3N)c3ccc(F)c(C)c3)CCS2(=O)=O)n1` [Example 43], the IC50 lay in the range of 1100 to 5000 nM.
`Cc1cc(C(F)(F)F)cc(N2[C@H](C(=O)N(CC#Cc3ccc(F)c(C(C)C)n3)c3ccc(F)c(C)c3)CCS2(=O)=O)n1` [Example 94, (S)-N-(4-fluoro-3-methylphenyl)-N-(3-(5-fluoro-6-isopropylpyridin-2-yl)prop-2-yn-1-yl)-2-(6-methyl-4-(trifluoromethyl)pyridin-2-yl)isothiazolidine-3-carboxamide 1,1-dioxide] returned an IC50 of 1100 to 5000 nM.
In the case of `Cc1cc(C(F)(F)F)cc(N2[C@H](C(=O)N(CC#Cc3cncc(C(N)=O)n3)c3ccc(F)c(C)c3)CCS2(=O)=O)n1` [Example 63, (S)-N-(3-(6-carbamoylpyrazin-2-yl)prop-2-yn-1-yl)-N-(4-fluoro-3-methylphenyl)-2-(6-methyl-4-(trifluoromethyl)pyridin-2-yl)isothiazolidine-3-carboxamide 1,1-dioxide], the IC50 is < 1000 nM.
In turn, `Cc1cc(C(F)(F)F)cc(N2[C@H](C(=O)N(CC#Cc3ccc(N4CCOCC4)nn3)c3ccc(F)c(C)c3)CCS2(=O)=O)n1` [Example 23, (S)-N-(4-fluoro-3-methylphenyl)-2-(6-methyl-4-(trifluoromethyl)pyridin-2-yl)-N-(3-(6-morpholinopyridazin-3-yl)prop-2-yn-1-yl)isothiazolidine-3-carboxamide 1,1-dioxide] displayed an IC50 of 1100 to 5000 nM.
As to `Cc1cc(C(F)(F)F)cc(N2C(=O)CC[C@H]2C(=O)N(CC#Cc2ccc(N)nn2)c2ccc(F)c(Cl)c2F)n1` [Example 4, (S)-N-(3-(6-aminopyridazin-3-yl)prop-2-yn-1-yl)-N-(3-chloro-2,4-difluorophenyl)-1-(6-methyl-4-(trifluoromethyl)pyridin-2-yl)-5-oxopyrrolidine-2-carboxamide], the IC50 was < 1000 nM.
As for `Cc1ccc(F)c(N(CC#Cc2cnc(N)cn2)C(=O)[C@@H]2CCS(=O)(=O)N2c2cc(C(F)(F)F)cc(C)n2)c1` [Example 33, (S)-N-(3-(5-aminopyrazin-2-yl)prop-2-yn-1-yl)-N-(2-fluoro-5-methylphenyl)-2-(6-methyl-4-(trifluoromethyl)pyridin-2-yl)isothiazolidine-3-carboxamide 1,1-dioxide], the IC50 is < 1000 nM.

The values are drawn from patent US20260297083A1, “SUBSTITUTED ACETYLENE COMPOUND DERIVATIVES AND THEIR PHARMACEUTICAL USE” (AVELOS THERAPEUTICS INC., priority 2023, published 2026).
